What was measured:
CDK2/CycE = CDK2/CycE (Homo sapiens (Human), UniProt P24941); assay: CDK2/CycE kinase assay (TR-FRET); assay type: biochemical; conditions: 10 μM ATP; read-out: CDK2 avg (IC50 [mol/l])
Method in brief: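 GST-tagged human CDK2 and GST-CycE from Sf9 cells (~130 ng/ml) were preincubated with compound for 15 min at 22 °C. Reaction with 10 μM ATP and 0.75 μM biotinylated peptide (final) ran 25 min at 22 °C, pH 8.0. Phospho-peptide was read by TR-FRET (665/620 nm ratio, anti-pRB antibody, Eu donor) and normalised to no-enzyme and no-inhibitor controls.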

human Bub1 = human Bub1 (Homo sapiens (Human), UniProt O43683); assay: Bub1 kinase assay (TR-FRET); assay type: biochemical; conditions: 10 μM ATP; read-out: Bub1 avg (IC50 [mol/l])
Method in brief: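 His6-tagged human Bub1 catalytic domain (aa 704-1085, insect-cell expressed, ~200 ng/ml) preincubated with compound 15 min, then reacted 60 min at 22 °C with 10 μM ATP and 1 μM biotinylated peptide (final) in pH 7.5 Tris buffer. Phosphopeptide detected by TR-FRET 665/620 ratio, normalised to no-inhibitor and no-enzyme controls.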

Sequence of human Bub1 (O43683 704-1085): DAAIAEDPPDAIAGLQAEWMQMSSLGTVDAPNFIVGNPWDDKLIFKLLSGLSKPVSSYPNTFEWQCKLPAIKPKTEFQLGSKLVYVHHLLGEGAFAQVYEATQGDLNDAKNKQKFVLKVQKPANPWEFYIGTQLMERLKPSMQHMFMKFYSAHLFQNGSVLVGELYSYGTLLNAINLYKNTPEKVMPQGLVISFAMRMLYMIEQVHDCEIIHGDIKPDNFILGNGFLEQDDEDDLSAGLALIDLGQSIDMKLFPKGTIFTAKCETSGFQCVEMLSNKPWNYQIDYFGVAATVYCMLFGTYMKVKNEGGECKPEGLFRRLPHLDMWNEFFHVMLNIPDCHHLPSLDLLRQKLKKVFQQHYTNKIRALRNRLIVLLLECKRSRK

SMILES: Cc1nsc(Nc2ccc(C#N)cn2)c1C(=O)Nc1ccc(Cl)c(Cl)c1 [Example 62, 5-[(5-Cyanopyridin-2-yl)amino]-N-(3,4-dichlorophenyl)-3-methyl-1,2-thiazole-4-carboxamide]
- IC50 (CDK2/CycE): 6.5 µM
- IC50 (human Bub1): > 20 µM

SMILES: CNC(=O)c1ccc(Nc2snc(C)c2C(=O)Nc2ccc(F)c(F)c2)nn1 [Example 80, 6-({4-[(3,4-Difluorophenyl)carbamoyl]-3-methyl-1,2-thiazol-5-yl}amino)-N-methylpyridazine-3-carboxamide]
- IC50 (CDK2/CycE): > 20 µM
- IC50 (human Bub1): > 20 µM

SMILES: COc1ccc(NC(=O)c2c(C)nsc2Nc2cncc(C(F)(F)F)n2)cn1 [Example 84, N-(6-methoxypyridin-3-yl)-3-methyl-5-{[6-(trifluoromethyl)pyrazin-2-yl]amino}-1,2-thiazole-4-carboxamide]
- IC50 (CDK2/CycE): > 20 µM
- IC50 (human Bub1): > 20 µM

SMILES: Cc1cncc(Nc2snc(C)c2C(=O)Nc2ccc(F)c(F)c2)n1 [Example 69]
- IC50 (CDK2/CycE): > 20 µM
- IC50 (human Bub1): > 20 µM

SMILES: COc1ccc(NC(=O)c2c(C)nsc2Nc2nc3ccc(F)cc3s2)cn1 [Example 88, 5-[(6-Fluoro-1,3-benzothiazol-2-yl)amino]-N-(6-methoxypyridin-3-yl)-3-methyl-1,2-thiazole-4-carboxamide]
- IC50 (CDK2/CycE): > 20 µM
- IC50 (human Bub1): 17 µM

SMILES: COC(=O)c1cncc(Nc2snc(C)c2C(=O)Nc2ccc(F)c(F)c2)n1 [Example 66, Methyl 6-({4-[(3,4-difluorophenyl)carbamoyl]-3-methyl-1,2-thiazol-5-yl}amino)-pyrazine-2-carboxylate]
- IC50 (CDK2/CycE): > 20 µM
- IC50 (human Bub1): > 20 µM

SMILES: Cc1nsc(Nc2cnc3cc(C(F)(F)F)ccc3n2)c1C(=O)Nc1ccc(Cl)c(F)c1 [Example 68, N-(4-Chloro-3-fluorophenyl)-3-methyl-5-{[6-(trifluoromethyl)quinoxalin-2-yl]amino}-1,2-thiazole-4-carboxamide]
- IC50 (CDK2/CycE): > 20 µM
- IC50 (human Bub1): > 20 µM

SMILES: COc1ccc(NC(=O)c2c(C)nsc2Nc2cnc(C(F)(F)F)cn2)cn1 [Example 85, N-(6-methoxypyridin-3-yl)-3-methyl-5-{[5-(trifluoromethyl)pyrazin-2-yl]amino}-1,2-thiazole-4-carboxamide]
- IC50 (CDK2/CycE): > 20 µM
- IC50 (human Bub1): > 20 µM

SMILES: CCc1ccccc1NC(=O)c1c(C)nsc1Nc1ccncn1 [Example 2, N-(2-Ethylphenyl)-3-methyl-5-(pyrimidin-4-ylamino)-1,2-thiazole-4-carboxamide]
- IC50 (CDK2/CycE): > 20 µM
- IC50 (human Bub1): > 20 µM

SMILES: CCNc1cncc(Nc2snc(C)c2C(=O)Nc2ccc(F)c(F)c2)n1 [Example 78, N-(3,4-Difluorophenyl)-5-{[6-(ethylamino)pyrazin-2-yl]amino}-3-methyl-1,2-thiazole-4-carboxamide]
- IC50 (CDK2/CycE): > 20 µM
- IC50 (human Bub1): > 20 µM

SMILES: COc1ccc(NC(=O)c2c(C)nsc2Nc2nc3ccc(C)cc3s2)cn1 [Example 90, N-(6-Methoxypyridin-3-yl)-3-methyl-5-[(6-methyl-1,3-benzothiazol-2-yl)amino]-1,2-thiazole-4-carboxamide]
- IC50 (CDK2/CycE): > 20 µM
- IC50 (human Bub1): > 20 µM

SMILES: Cc1nsc(Nc2cnc(Br)cn2)c1C(=O)Nc1ccc(F)c(F)c1 [Example 77, 5-[(5-Bromopyrazin-2-yl)amino]-N-(3,4-difluorophenyl)-3-methyl-1,2-thiazole-4-carboxamide]
- IC50 (CDK2/CycE): > 20 µM
- IC50 (human Bub1): > 20 µM

SMILES: COc1ccc(NC(=O)c2c(C)nsc2Nc2cnc3ccccc3n2)cn1 [Example 94, N-(6-Methoxypyridin-3-yl)-3-methyl-5-(quinoxalin-2-ylamino)-1,2-thiazole-4-carboxamide]
- IC50 (CDK2/CycE): > 20 µM
- IC50 (human Bub1): > 20 µM

SMILES: Cc1nsc(Nc2cnc(Cl)cn2)c1C(=O)Nc1ccc(F)c(F)c1 [Example 74, 5-[(5-Chloropyrazin-2-yl)amino]-N-(3,4-difluorophenyl)-3-methyl-1,2-thiazole-4-carboxamide]
- IC50 (CDK2/CycE): > 20 µM
- IC50 (human Bub1): > 20 µM

SMILES: CCNC(=O)c1cncc(Nc2snc(C)c2C(=O)Nc2ccc(F)c(F)c2)n1 [Example 73, 6-({4-[(3,4-Difluorophenyl)carbamoyl]-3-methyl-1,2-thiazol-5-yl}amino)-N-ethylpyrazine-2-carboxamide]
- IC50 (CDK2/CycE): > 20 µM
- IC50 (human Bub1): 6.2 µM

SMILES: CCc1ccccc1NC(=O)c1c(C)nsc1Nc1cnc2cc(Cl)ccc2n1 [Example 86, 5-[(6-Chloroquinoxalin-2-yl)amino]-N-(2-ethylphenyl)-3-methyl-1,2-thiazole-4-carboxamide]
- IC50 (CDK2/CycE): > 20 µM
- IC50 (human Bub1): > 20 µM

SMILES: COc1ccc2nc(Nc3snc(C)c3C(=O)Nc3ccc(OC)nc3)sc2c1 [Example 87, 5-[(6-Methoxy-1,3-benzothiazol-2-yl)amino]-N-(6-methoxypyridin-3-yl)-3-methyl-1,2-thiazole-4-carboxamide]
- IC50 (CDK2/CycE): > 20 µM
- IC50 (human Bub1): 11 µM

SMILES: CCc1ccccc1NC(=O)c1c(C)nsc1Nc1ncccc1C(F)(F)F [Example 3, N-(2-Ethylphenyl)-3-methyl-5-{[3-(trifluoromethyl)pyridin-2-yl]amino}-1,2-thiazole-4-carboxamide]
- IC50 (CDK2/CycE): > 20 µM
- IC50 (human Bub1): > 20 µM

SMILES: Cc1nsc(Nc2cnccn2)c1C(=O)Nc1ccc(F)c(F)c1 [Example 65, N-(3,4-Difluorophenyl)-3-methyl-5-(pyrazin-2-ylamino)-1,2-thiazole-4-carboxamide]
- IC50 (CDK2/CycE): > 20 µM
- IC50 (human Bub1): > 20 µM

SMILES: Cc1nsc(Nc2cnc3cc(C(F)(F)F)ccc3n2)c1C(=O)Nc1ccc(Cl)c(Cl)c1 [Example 61, N-(3,4-Dichlorophenyl)-3-methyl-5-{[6-(trifluoromethyl)quinoxalin-2-yl]amino}-1,2-thiazole-4-carboxamide]
- IC50 (CDK2/CycE): > 20 µM
- IC50 (human Bub1): > 20 µM

SMILES: CCOC(=O)c1sc(Nc2snc(C)c2C(=O)Nc2ccc(Cl)c(F)c2)nc1C [Example 95, Ethyl 2-({4-[(4-chloro-3-fluoro-phenyl)carbamoyl]-3-methyl-1,2-thiazol-5-yl}amino)-4-methyl-1,3-thiazole-5-carboxylate]
- IC50 (CDK2/CycE): > 20 µM
- IC50 (human Bub1): > 20 µM

SMILES: Cc1nsc(Nc2cnc3cc(C(F)(F)F)ccc3n2)c1C(=O)Nc1ccc(F)c(F)c1 [Example 60, N-(3,4-Difluorophenyl)-3-methyl-5-{[6-(trifluoromethyl)quinoxalin-2-yl]amino}-1,2-thiazole-4-carboxamide]
- IC50 (CDK2/CycE): > 20 µM
- IC50 (human Bub1): > 20 µM

SMILES: COc1ccc(NC(=O)c2c(C)nsc2Nc2nc3cccnc3s2)cn1 [Example 89, N-(6-Methoxypyridin-3-yl)-3-methyl-5-([1,3]thiazolo[5,4-b]pyridin-2-ylamino)-1,2-thiazole-4-carboxamide]
- IC50 (CDK2/CycE): > 20 µM
- IC50 (human Bub1): 0.21 µM

SMILES: Cc1nsc(Nc2ccc(C(F)(F)F)nn2)c1C(=O)Nc1ccc(F)c(F)c1 [Example 83, N-(3,4-Difluorophenyl)-3-methyl-5-{[6-(trifluoromethyl)pyridazin-3-yl]amino}-1,2-thiazole-4-carboxamide]
- IC50 (CDK2/CycE): > 20 µM
- IC50 (human Bub1): > 20 µM

SMILES: CNC(=O)c1cnc(Nc2snc(C)c2C(=O)Nc2ccc(F)c(F)c2)cn1 [Example 75, 5-({4-[(3,4-Difluorophenyl)carbamoyl]-3-methyl-1,2-thiazol-5-yl}amino)-N-methylpyrazine-2-carboxamide]
- IC50 (CDK2/CycE): > 20 µM
- IC50 (human Bub1): > 20 µM

SMILES: Cc1nsc(Nc2nc3c(C(F)(F)F)ccnc3s2)c1C(=O)Nc1ccc(F)c(F)c1 [Example 58, N-(3,4-Difluorophenyl)-3-methyl-5-{[7-(trifluoromethyl)[1,3]thiazolo[5,4-b]pyridin-2-yl]amino}-1,2-thiazole-4-carboxamide]
- IC50 (CDK2/CycE): > 20 µM
- IC50 (human Bub1): > 20 µM

SMILES: CCc1ccccc1NC(=O)c1c(C)nsc1Nc1cc(C#N)ccn1 [Example 4, 5-[(4-Cyanopyridin-2-yl)amino]-N-(2-ethylphenyl)-3-methyl-1,2-thiazole-4-carboxamide]
- IC50 (CDK2/CycE): > 20 µM
- IC50 (human Bub1): > 20 µM

SMILES: CCc1cncc(Nc2snc(C)c2C(=O)Nc2ccc(F)c(F)c2)n1 [Example 76, N-(3,4-Difluorophenyl)-5-[(6-ethylpyrazin-2-yl)amino]-3-methyl-1,2-thiazole-4-carboxamide]
- IC50 (CDK2/CycE): > 20 µM
- IC50 (human Bub1): > 20 µM
